According to patent US20260083865A1, “PROSTATE SPECIFIC MEMBRANE ANTIGEN (PSMA) LIGANDS AND USE THEREOF” (priority 2022, published 2026):
Like-named read-outs stand apart in the source and are kept apart here. Numbered stars: 1 amine (or outer) side, 2 acyl side, 3 side chain; on linkers, the order of the positions; unused ones are H or OH. Bridge positions count the residues as written; N and C are the ends. Square brackets hold non-standard residues; d marks the D form. Side chains are listed from the residue outwards. Peptide text beside a SMILES is read from it. * marks the point of attachment. TtdsdLys(DOTA)NH2 = NC(=O)[C@@H](CCCCNC(=O)CN1CCN(CC(=O)O)CCN(CC(=O)O)CCN(CC(=O)O)CC1)NC(=O)CCC(=O)NCCCOCCOCCOCCCN*; X2 = O=C(O)CN1CCN(CC(=O)O)CCN([C@H](CCC(=O)*)C(=O)O)CCN(CC(=O)O)CC1; DOTA = O=C(O)CN1CCN(CC(=O)O)CCN(CC(=O)*)CCN(CC(=O)O)CC1; Phe(3-Cl) = N[C@@H](Cc1cccc(Cl)c1)C(=O)O; Phe(4-Cl) = N[C@@H](Cc1ccc(Cl)cc1)C(=O)O; Ethylenediamine = C(CN[*:2])N[*:1]; NMeT = CN[C@H](C(=O)O)[C@@H](C)O; X1 = O=C(CC1CCN([*:1])CC1)[*:2]; Cit = NC(=O)NCCC[C@H](N)C(=O)O; Tle = CC(C)(C)[C@H](N)C(=O)O; 4Amb = NCc1ccc(C(=O)O)cc1; AEEA = NCCOCCOCC(=O)O; Aib = CC(C)(N)C(=O)O; CO = O=C([*:1])[*:2]; NHBu = CCCCN*

How the values were obtained:
[1] = target: T1, PSMA-expressing C4-2 cells (Homo sapiens, UniProt Q04609); test: FACS binding assay (competition with 50 nM PSM-0183); conditions: read-out: pIC50 [C4-2] CAT (converted)
T1 construct: PSMA-expressing C4-2 cells (ATCC, Cat. No. CRL-3314) were cultured in RPMI-1640; host or cells: C4-2 cells
T1 sequence (Q04609 whole entry): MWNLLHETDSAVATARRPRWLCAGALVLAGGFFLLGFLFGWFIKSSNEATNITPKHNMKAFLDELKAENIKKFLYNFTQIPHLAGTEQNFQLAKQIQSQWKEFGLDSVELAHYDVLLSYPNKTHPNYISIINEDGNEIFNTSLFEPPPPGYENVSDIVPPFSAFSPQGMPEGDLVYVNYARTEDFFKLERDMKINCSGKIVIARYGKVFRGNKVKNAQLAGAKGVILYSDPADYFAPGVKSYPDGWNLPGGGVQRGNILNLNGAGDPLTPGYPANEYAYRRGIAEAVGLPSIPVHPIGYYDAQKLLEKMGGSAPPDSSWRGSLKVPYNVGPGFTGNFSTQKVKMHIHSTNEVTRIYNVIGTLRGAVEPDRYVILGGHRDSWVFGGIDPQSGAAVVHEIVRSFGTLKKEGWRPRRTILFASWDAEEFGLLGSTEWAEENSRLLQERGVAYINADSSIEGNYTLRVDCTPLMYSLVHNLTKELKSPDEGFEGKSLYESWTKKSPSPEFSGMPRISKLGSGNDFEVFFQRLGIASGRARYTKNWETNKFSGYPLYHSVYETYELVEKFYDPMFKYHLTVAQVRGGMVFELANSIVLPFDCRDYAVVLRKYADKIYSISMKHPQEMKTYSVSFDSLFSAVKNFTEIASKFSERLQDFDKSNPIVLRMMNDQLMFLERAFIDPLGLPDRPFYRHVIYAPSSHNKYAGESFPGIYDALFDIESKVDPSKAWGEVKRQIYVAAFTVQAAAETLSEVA
Procedure, shortened: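 Competition format: fluorescent tracer PSM-0183 (50 nM) displaced from PSMA on C4-2 cells by a test compound titration over 1 h at 4 °C. Bound tracer was quantified as flow-cytometric AF488 median fluorescence after washing. Four-parameter logistic fits of MFI data gave IC50 and pIC50.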

[2] = target: T2, Fc-fusion protein of human PSMA (hPSMA-Fc) (Homo sapiens, UniProt Q04609); test: Surface plasmon resonance assay (Biacore T200, single cycle kinetic); type: binding; conditions: hPSMA-Fc, 25° C., read-out: pKD CAT (converted)
T2 construct: purchased Acro Biosystems PSA-H5264
T2 sequence (Q04609 44-750 limits assumed): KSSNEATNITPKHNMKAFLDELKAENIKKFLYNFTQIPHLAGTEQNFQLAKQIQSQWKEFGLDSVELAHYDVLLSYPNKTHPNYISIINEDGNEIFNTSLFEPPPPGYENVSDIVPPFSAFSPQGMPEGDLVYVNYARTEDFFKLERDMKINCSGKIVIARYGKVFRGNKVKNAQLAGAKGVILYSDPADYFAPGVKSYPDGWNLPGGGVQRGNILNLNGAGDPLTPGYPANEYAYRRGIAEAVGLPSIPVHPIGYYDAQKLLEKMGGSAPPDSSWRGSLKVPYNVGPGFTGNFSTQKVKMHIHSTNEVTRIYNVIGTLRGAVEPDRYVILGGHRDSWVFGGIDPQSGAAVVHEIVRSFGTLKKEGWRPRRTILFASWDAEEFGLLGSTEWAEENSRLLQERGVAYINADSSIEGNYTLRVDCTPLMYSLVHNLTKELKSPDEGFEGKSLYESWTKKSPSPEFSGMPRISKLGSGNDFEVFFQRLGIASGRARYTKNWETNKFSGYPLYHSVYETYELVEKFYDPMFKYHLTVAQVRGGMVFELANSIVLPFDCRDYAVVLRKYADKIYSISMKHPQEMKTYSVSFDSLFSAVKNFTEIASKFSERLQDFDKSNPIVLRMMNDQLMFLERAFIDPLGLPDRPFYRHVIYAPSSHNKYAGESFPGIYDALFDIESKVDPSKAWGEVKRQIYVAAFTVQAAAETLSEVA
Procedure, shortened: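 KD, expressed as pKD, came from 1:1 Langmuir fits of reference- and buffer-blank-subtracted SPR data. The runs were single-cycle kinetics at 25° C in HBST/0.1% DMSO over human PSMA-Fc, captured to ~1000 RU on a peptide-coated CM5 surface and regenerated with 10 mM glycine pH 1.5.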

[3] = test system: PC3-PIP tumor model; parameters: species or system mice; conditions: mouse, in vivo
Text: Radioactively labeled compounds can be detected by imaging methods such as SPECT and PET. Furthermore, the data acquired by such techniques can be confirmed by direct measurement of radioactivity contained in the individual organs prepared from an animal injected with a radioactively labeled compound of the disclosure. Thus, the biodistribution (the measurement of radioactivity in individual organs) of a radioactively labeled compound can be determined and analyzed. […] All animal experiments were conducted in compliance with the German animal protection laws. Male swiss or NMRI nude mice (6-8 weeks old, Janvier Labs, France) were inoculated with 5×10^6 PC3-PIP cells in the right shoulder. For selected compounds an additional model was used, here male NMRI nude mice (6-8 weeks old, Janvier Labs, France) were inoculated with 5×10^6 or/1×10^7 C4-2 cells in the right shoulder. When tumors reached an appropriate size, the mice received ˜30 MBq ^111In-labeled compounds of the disclosure (diluted to 100 μL with PBS) administered intravenously via the tail vein. Images were obtained on a NanoSPECT/computed tomography system (Mediso Medical Imaging Systems, Budapest, Hungary) using exemplarily the following acquisition and reconstruction parameters (Table 10). [table] Imaging data were saved as DICOM files and analysed using VivoQuant™ software (Invicro, Boston, USA). In brief, regions of interest (ROIs) were drawn based on computed tomography images for the relevant organs and tissue regions such as heart (estimate of blood pool, bps), kidney, and tumor. The resulting numeric data expressed as a percentage of injected dose per gram of tissue (% ID/g) are presented in FIGS. 3(a)-3(ii) for the PC3-PIP model and FIGS. 4(a)-4(r) for the C4-2 model. Bars show mean % ID/g values of two to three animals per time point. Error bars indicate the value range (minimum and maximum values).

[4] = FACS binding, PSMA-expressing C4-2 cells, pIC50 category
[5] = pIC50 category of FACS binding, C4-2 cells
[6] = pKD category for PSMA SPR activity assay

SMILES	IC50 [1, 4]	Kd ([2]; PSMA SPR assay, pKD category)	AUC ratio [T/K] [3]	Tumor AUC [3]	IC50 [1, 5]	Kd [2, 6]
C[C@@H](O)[C@H](NC(=O)[C@@H](NC(=O)[C@@H]1CSSC[C@H](NC(=O)[C@H](Cc2ccc(Cl)cc2)NC(=O)C(C)(C)NC(=O)c2ccc(CNC(=O)CN3CCN(CC(=O)O)CCN(CC(=O)O)CCN(CC(=O)O)CC3)cc2)C(=O)N[C@@H](CCCCN)C(=O)N[C@@H](CCCNC(=N)N)C(=O)NC(C)(C)C(=O)N[C@@H](CC(N)=O)C(=O)N1)C(C)(C)C)C(N)=O [PSM-0283, DOTA-Pamb-Aib-Pcf-[Cys-Lys-Arg-Aib-Asn-Cys]-Tle-Thr-NH2] ({DOTA-4Amb}-[Aib][Phe(4-Cl)]CKR[Aib]NC[Tle]T-NH2; disulfide 3-8)	< 200 nM	< 12.6 nM	1.6	200 % ID/g*h		
CC(=O)N[C@H](C(=O)NC(C)(C)C(=O)N[C@@H](Cc1ccccc1)C(=O)N[C@H]1CSSC[C@@H](C(=O)N[C@H](C(=O)N[C@H](C(=O)NCCCOCCOCCOCCCNC(=O)CCC(=O)N[C@H](CCCCNC(=O)CN2CCN(CC(=O)O)CCN(CC(=O)O)CCN(CC(=O)O)CC2)C(N)=O)[C@@H](C)O)C(C)(C)C)NC(=O)[C@H](CC(N)=O)NC(=O)C(C)(C)NC(=O)[C@H](CCCNC(=N)N)NC(=O)[C@H](CCCCN)NC1=O)[C@@H](C)O [PSM-0285, Ac-Thr-Aib-Phe-[Cys-Lys-Arg-Aib-Asn-Cys]-Tle-Thr-Ttds-lys(DOTA)-NH2] (Ac-T[Aib]FCKR[Aib]NC[Tle]T-{TtdsdLys(DOTA)NH2}; disulfide 4-9)	< 200 nM	< 12.6 nM	0.91	210 % ID/g*h		
CC(=O)N[C@H](C(=O)NC(C)(C)C(=O)N[C@@H](Cc1cccc(Cl)c1)C(=O)N[C@H]1CSSC[C@@H](C(=O)N[C@H](C(=O)N[C@H](C(N)=O)[C@@H](C)O)C(C)(C)C)NC(=O)[C@H](CC(N)=O)NC(=O)[C@H](CCCCNC(=O)COCCOCCNC(=O)CC[C@H](C(=O)O)N2CCN(CC(=O)O)CCN(CC(=O)O)CCN(CC(=O)O)CC2)NC(=O)[C@H](CCCNC(=N)N)NC(=O)[C@H](CCCCN)NC1=O)[C@@H](C)O [PSM-0301, Ac-Thr-Aib-Mcf-[Cys-Lys-Arg-Lys (DOTAGA-020c)-Asn-Cys]-Tle-Thr-NH2] (Ac-T[Aib][Phe(3-Cl)]CKRK([AEEA-X2])NC[Tle]T-NH2; disulfide 4-9)	< 200 nM	< 12.6 nM	0.45	83 % ID/g*h		
CC(=O)N[C@H](C(=O)NC(C)(C)C(=O)N[C@@H](Cc1ccccc1)C(=O)N[C@H]1CSSC[C@@H](C(=O)N[C@H](C(=O)N[C@H](C(=O)N2CCC(CC(=O)N[C@H](CCCCNC(=O)CC[C@H](C(=O)O)N3CCN(CC(=O)O)CCN(CC(=O)O)CCN(CC(=O)O)CC3)C(N)=O)CC2)[C@@H](C)O)C(C)(C)C)NC(=O)[C@H](CC(N)=O)NC(=O)C(C)(C)NC(=O)[C@H](CCCNC(=N)N)NC(=O)[C@H](CCCCN)NC1=O)[C@@H](C)O [PSM-0339, Ac-Thr-Aib-Phe-[Cys-Lys-Arg-Aib-Asn-Cys]-Tle-Thr-Cmp-lys (DOTAGA)-NH2] (Ac-T[Aib]FCKR[Aib]NC[Tle]T[X1][dK](X2)-NH2; disulfide 4-9)	< 200 nM	< 12.6 nM	1.2	160 % ID/g*h		
C[C@@H](O)[C@H](NC(=O)CC1CCN(C(=O)CN2CCN(CC(=O)O)CCN(CC(=O)O)CCN(CC(=O)O)CC2)CC1)C(=O)NC(C)(C)C(=O)N[C@@H](Cc1ccccc1)C(=O)N[C@H]1CSSC[C@@H](C(=O)N[C@H](C(N)=O)C(C)(C)C)NC(=O)[C@H](CC(N)=O)NC(=O)C(C)(C)NC(=O)[C@H](CCCNC(=N)N)NC(=O)[C@H](CCCCN)NC1=O [PSM-0361, DOTA-Cmp-Thr-Aib-Phe-[Cys-Lys-Arg-Aib-Asn-Cys]-Tle-NH2] ({DOTA}-[X1]T[Aib]FCKR[Aib]NC[Tle]-NH2; disulfide 5-10)	< 200 nM	< 12.6 nM	0.85	110 % ID/g*h		
C[C@@H](O)[C@H](NC(=O)[C@@H](NC(=O)[C@@H]1CSSC[C@H](NC(=O)[C@H](Cc2ccc(Cl)cc2)NC(=O)C(C)(C)NC(=O)[C@@H](NC(=O)CC2CCN(C(=O)CN3CCN(CC(=O)O)CCN(CC(=O)O)CCN(CC(=O)O)CC3)CC2)[C@@H](C)O)C(=O)N[C@@H](CCCCN)C(=O)N[C@@H](CCCNC(N)=O)C(=O)NC(C)(C)C(=O)N[C@@H](CC(N)=O)C(=O)N1)C(C)(C)C)C(N)=O [PSM-0365, DOTA-Cmp-Thr-Aib-Pcf-[Cys-Lys-Cit-Aib-Asn-Cys]-Tle-Thr-NH2] ({DOTA}-[X1]T[Aib][Phe(4-Cl)]CK[Cit][Aib]NC[Tle]T-NH2; disulfide 5-10)			1.6	140 % ID/g*h	< 200 nM	< 12.6 nM
CCCCNC(=O)N[C@H](C(=O)NC(C)(C)C(=O)N[C@@H](Cc1ccc(Cl)cc1)C(=O)N[C@H]1CSSC[C@@H](C(=O)N[C@H](C(=O)N[C@H](C(=O)N2CCC(CC(=O)N[C@H](CCCCNC(=O)CN3CCN(CC(=O)O)CCN(CC(=O)O)CCN(CC(=O)O)CC3)C(N)=O)CC2)[C@@H](C)O)C(C)(C)C)NC(=O)[C@H](CC(N)=O)NC(=O)C(C)(C)NC(=O)[C@H](CCCNC(=N)N)NC(=O)[C@H](CCCCN)NC1=O)[C@@H](C)O [PSM-0371, nBuCAyl-Thr-Aib-Pcf-[Cys-Lys-Arg-Aib-Asn-Cys]-Tle-Thr-Cmp-lys(DOTA)-NH2] ({NHBu-CO}-T[Aib][Phe(4-Cl)]CKR[Aib]NC[Tle]T[X1][dK](DOTA)-NH2; disulfide 4-9)			0.62	120 % ID/g*h	< 200 nM	< 12.6 nM
CC(C)[C@H](NC(=O)[C@@H]1CSSC[C@H](NC(=O)[C@H](Cc2ccc(Cl)cc2)NC(=O)C(C)(C)NC(=O)[C@@H](NC(=O)CC2CCN(C(=O)CN3CCN(CC(=O)O)CCN(CC(=O)O)CCN(CC(=O)O)CC3)CC2)[C@@H](C)O)C(=O)N[C@@H](CCCCN)C(=O)N[C@@H](CCCNC(=N)N)C(=O)NC(C)(C)C(=O)N[C@@H](CC(N)=O)C(=O)N1)C(=O)N(C)[C@H](C(N)=O)[C@@H](C)O [PSM-0377, DOTA-Cmp-Thr-Aib-Pcf-[Cys-Lys-Arg-Aib-Asn-Cys]-Val-Nmt-NH2] ({DOTA}-[X1]T[Aib][Phe(4-Cl)]CKR[Aib]NCV[NMeT]-NH2; disulfide 5-10)			1.1	160 % ID/g*h	< 200 nM	< 12.6 nM
C[C@@H](O)[C@H](NC(=O)CC1CCN(C(=O)CN2CCN(CC(=O)O)CCN(CC(=O)O)CCN(CC(=O)O)CC2)CC1)C(=O)NC(C)(C)C(=O)N[C@@H](Cc1ccc(Cl)cc1)C(=O)N[C@H]1CSSC[C@@H](C(=O)N[C@H](C(=O)NCCN)C(C)(C)C)NC(=O)[C@H](CC(N)=O)NC(=O)C(C)(C)NC(=O)[C@H](CCCNC(=N)N)NC(=O)[C@H](CCCCN)NC1=O [PSM-0384, DOTA-Cmp-Thr-Aib-Pcf-[Cys-Lys-Arg-Aib-Asn-Cys]-Tle-en] ({DOTA}-[X1]T[Aib][Phe(4-Cl)]CKR[Aib]NC[Tle]-Ethylenediamine; disulfide 5-10)			0.30	220 % ID/g*h	< 200 nM	< 12.6 nM
